Values joined by “and” are separate entries in the source; they are usually repeats but may differ in a detail not shown here. Equal values may be shown once.
Assays:
Assay type in all cases: in vivo, human
[1] = system: neurofibromas; experiment: Light microscopy exam (hematoxylin & eosin) of tumors biopsied at day 2; conditions: ALA-treated tumors, day 2 after PDT
Excerpt: (§1) (day 2), and 2 to 4 (day 14-28) weeks after light treatment, for evaluation of cutaneous adverse events. At day 2, tumors were biopsied using a punch technique and subjected to light microscopy exam, TUNEL assay (DeadEnd™ Colorimetric TUNEL System, Promega, Madison, WI), and DAPI (4′,6-diamidino-2-phenylindole) staining (ab228549, Abcam, Cambridge, MA). Additional follow-up visits for measurement of lesions were made at periods of 3 months up to one year. See FIG. 1 for a schematic of the study design. The primary outcome for this clinical study was MTD, as measured in the dose escalation using the DLT as defined above. A secondary outcome measured efficacy defined by change in lesion size. The area of the lesion was estimated at baseline and during follow-up visits by measuring the long and short axis of the lesion. Average growth rates were calculated and comparisons made between ALA-treated and placebo lesions within the same subject. The null hypothesis was that there would be no difference in the growth rates of ALA-treated lesions when paired with same-subject placebo lesions. The alternative hypothesis was there would be a difference in the ALA and placebo lesion growth rates.

[2] = system: superficial dermal neurofibromas; experiment: Photosensitizer uptake and conversion: PpIX fluorescence in excised tumors by confocal microscopy
Procedure: Four adult subjects were enrolled (2 males, 2 females) in part 1. Three tumor groups for each subject consisted of untreated negative controls, tumors treated with drug vehicle only, and ALA (Levulan® Kerastick® Topical Solution, Sun Pharma, Wilmington, MA, USA) treated tumors. Treated tumors were incubated with ALA or vehicle three hours (2 subjects) or overnight (2 subjects), then excised and subjected to fluorescence microscopy studies to measure mean fluorescence indicating PpIX conversion in tumors. Four adult subjects (2 males, 2 females) participated in part 1. Ages ranged from 39 to 67 yrs.
Photosensitizer Uptake: Treated tumors were incubated with ALA or vehicle three hours (2 subjects) or overnight (2 subjects), then excised and subjected to fluorescence microscopy studies to measure mean fluorescence indicating PpIX conversion in tumors. Importantly, ALA delivery for the subjects undergoing overnight incubation was assisted using microneedling (Dermapen®, Salt Lake City, Utah) of the tumors. […] The primary outcome measure was the ratio of mean fluorescence intensity in tumors compared to adjacent normal tissue, as determined by confocal microscopy. PpIX signals were detected with excitation at 405 nm and emission with a 600 nm long pass filter.

[3] = system: neurofibromas; experiment: TUNEL assay for apoptotic cell death in tumors biopsied at day 2; conditions: all TUNEL evaluated tumor samples, five subjects; p=0.002 vs vehicle
Excerpt: as §1

[4] = system: neurofibroma lesions
Procedure: Nine adult subjects participated in part 2, four male and five female. Ages ranged from 39 to 69, with a median of 58. For each subject neurofibromalesions were selected for treatment with ALA (3-6 lesions) and vehicle (3-6 lesions) delivered with microneedling. Following an overnight (16-18 hrs.) incubation time, all treated neurofibromas were illuminated with red light at 633 nm and 105 mW/cm^2 (Omnilux Revive® LED illuminator, Photo Therapeutics, Montgomeryville, PA, USA). The dose escalation study included doses of 50, 100 or 200 J/cm^2. Each subject received one single treatment.
Study Design: This study followed a 3+3 Phase I trial design, subjects were treated starting at a dose level of 50 J/cm^2. Dose escalation was performed only after a minimum of three subjects had been evaluated at the current level. If dose-limiting toxicity (DLT) occurred in 1 of 3 subjects, 3 more subjects would be evaluated at that dose level. DLT was defined as pain during irradiation requiring cessation of the light treatment, or any serious cutaneous adverse events, such as erosions or blistering or crusting of the skin. If 0 of these 3 subjects experienced DLT, then the dose was escalated (only one DLT in six subjects). If DLT occurred in 1 of the additional 3 subjects, the […] tolerable dose (MTD) had been exceeded (two DLTs in six subjects) and 3 more subjects would be treated at the next lower dose (if only 3 subjects had been treated previously at that dose). […] The MTD is defined as that dose level immediately below the dose level at which 2 subjects of a cohort (three or six subjects) experience DLT.
as §1

[5] = system: neurofibroma lesions; experiment: Lesion size and growth rate after PDT treatment
Excerpt: as §1

NCC(=O)CCC(=O)O [ALA, 5-aminolevulinic acid]
Infiltrate on light microscopy [1]: mixed infiltrate consisting of lymphocytes, neutrophils, and rare eosinophils | Fluorescence compared to adjacent normal tissue ([2]; microneedled, overnight incubation): significant fluorescence | Fluorescence in the apparent tumor zones ([2]; topical ALA, incubated 3 hrs., excised tumors from two subjects): no fluorescence | Average number of apoptotic cells per visual field [3]: 42.5±19.9 | Duration of post inflammatory hyperpigmentation ([4]; ALA-PDT treated NF lesions): up to 3 months | Time by which edema and redness subsided ([4]; ALA-PDT treated NF lesions): ≤ 2 days | Blister formation, erosion or crusting ([4]; human, in vivo): no blister formation, erosion or crusting | Erythema and edema around lesions ([4]; human, in vivo): marked erythema and edema | MTD (light dose) ([4]; human, in vivo): 100 J/cm^2 | Pain and discomfort induced by red light treatment ([4]; human, in vivo): marked pain and discomfort | Subjects with DLT (pain requiring cessation of the light treatment) ([4]; human, in vivo): One subject | Duration of erythema and edema ([4]; red light 105 mW/cm^2, 50 or 100 J/cm^2): at least 48 hrs. | Tumor size change ([5]; measured at 2, 4 and 12 weeks after treatment, five subjects): did not show significant change | Growth rate ALA ([5]; post PDT treatment, individual subjects): −0.073 (0.063) mm^2/day and 0.028 (0.040) mm^2/day and 0.097 (0.103) mm^2/day and 0.375 (00157) mm^2/day and −0.024 (0.030) mm^2/day | Difference in growth rates (ALA vs placebo) ([5]; post PDT treatment, individual subjects, same-subject placebo lesions): 0.034 mm^2/day and −0.239 mm^2/day and 0.097 mm^2/day and −0.440 mm^2/day and −0.110 mm^2/day
